Laboratory results taken from ChEMBL document CHEMBL3352762 (J Med Chem, 2014).
Calls of active or inactive are those of the source. No cut-off for these calls is given here.

Columns and labels:
[1] = molecular target: T1, Urotensin-2 receptor (Homo sapiens) (UniProt Q9UKP6); test: Partial agonist activity at human recombinant UT receptor expressed in CHO-K1 cells assessed as stimulation of intracellular calcium mobilization at 1 uM by FLIPR assay relative to urotensin-2; type: functional, cell-based
T1 sequence (whole entry): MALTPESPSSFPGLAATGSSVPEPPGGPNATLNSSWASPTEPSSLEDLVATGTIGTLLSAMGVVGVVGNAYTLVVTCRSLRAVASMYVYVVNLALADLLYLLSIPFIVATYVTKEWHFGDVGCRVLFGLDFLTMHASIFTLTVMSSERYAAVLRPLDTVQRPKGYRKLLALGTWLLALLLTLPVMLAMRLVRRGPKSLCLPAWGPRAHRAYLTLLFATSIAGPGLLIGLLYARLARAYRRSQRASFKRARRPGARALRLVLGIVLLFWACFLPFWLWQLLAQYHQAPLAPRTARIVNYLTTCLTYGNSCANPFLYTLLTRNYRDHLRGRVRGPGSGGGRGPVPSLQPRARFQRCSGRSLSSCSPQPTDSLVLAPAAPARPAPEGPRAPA

[2] = molecular target: T2, Urotensin-2 receptor (Rattus norvegicus) (UniProt P49684); test: Competitive antagonist activity at UT receptor in rat aorta assessed as effect on urotensin-2-induced contraction; type: tissue-based
T2 sequence (whole entry): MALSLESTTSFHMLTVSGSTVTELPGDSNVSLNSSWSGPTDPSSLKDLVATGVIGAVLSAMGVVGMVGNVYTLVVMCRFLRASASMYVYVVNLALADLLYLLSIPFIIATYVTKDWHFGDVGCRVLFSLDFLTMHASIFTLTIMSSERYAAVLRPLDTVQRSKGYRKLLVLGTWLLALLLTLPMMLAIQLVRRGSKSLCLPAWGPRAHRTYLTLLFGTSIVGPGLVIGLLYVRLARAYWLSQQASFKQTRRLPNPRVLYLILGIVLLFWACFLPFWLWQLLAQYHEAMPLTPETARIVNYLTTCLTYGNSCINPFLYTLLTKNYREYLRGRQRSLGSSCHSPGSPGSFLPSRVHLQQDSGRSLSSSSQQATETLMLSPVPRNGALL

[3] = molecular target: T2, Urotensin-2 receptor (Rattus norvegicus); test: Agonist activity at UT receptor in rat aorta assessed as contraction relative to urotensin-2; type: tissue-based
[4] = molecular target: T1, Urotensin-2 receptor (Homo sapiens); test: Partial agonist activity at human recombinant UT receptor expressed in CHO-K1 cells assessed as stimulation of intracellular calcium mobilization at 10 uM by FLIPR assay relative to urotensin-2; type: functional, cell-based
[5] = molecular target: T2, Urotensin-2 receptor (Rattus norvegicus); test: Agonist activity at UT receptor in rat aorta assessed as contraction; type: tissue-based
[6] = Stability in 25% fetal calf serum assessed as parent compound remaining at 80 uM at 37 degC after 16 hrs by RP-HPLC-UV based detection assay; type: ADME, Bos taurus; settings: cattle, read-out: Stability
[7] = molecular target: T1, Urotensin-2 receptor (Homo sapiens); test: Partial agonist activity at human recombinant UT receptor expressed in CHO-K1 cells assessed as stimulation of intracellular calcium mobilization by FLIPR assay; type: functional, cell-based
[8] = Stability in 25% fetal calf serum assessed as parent compound remaining at 80 uM at 37 degC after 36 hrs by RP-HPLC-UV based detection assay; type: ADME, Bos taurus; settings: cattle, read-out: Stability
Urotensin-2 receptor = molecular target: T3, Urotensin-2 receptor (Homo sapiens, UniProt Q9UKP6); test: Displacement of [125I]urotensin-2 from human recombinant UT receptor expressed in CHO-K1 cells by scintillation counting method; type: cell-based
T3 sequence (Q9UKP6 whole entry): T1 sequence (whole entry)

Compound `CC(C)[C@H](NC(=O)[C@@H]1CSSC(C)(C)[C@H](NC(=O)[C@@H](N)CC(=O)O)C(=O)N[C@@H](Cc2ccccc2)C(=O)N[C@H](Cc2c[nH]c3ccccc23)C(=O)N[C@@H](CCCN)C(=O)N[C@@H](Cc2ccc(C#N)cc2)C(=O)N1)C(=O)O` has an Efficacy [1] of 61.4%, a pKb [2] of 8.15 and an Emax [3] of 0%. For the same compound, the Efficacy [4] was 61.7%, the pEC50 [5] was “inactive” and the remaining at 16 h, 80 µM [6] was over 70%. For the same compound, the Activity [7] was “Active”, the remaining at 36 h, 80 µM [8] was over 50% and the Ki (Urotensin-2 receptor) was 12 nM.
